Test results taken from the NIST ThermoML archive (doi:10.1016/j.jct.2015.03.007).

Test: xn = mol fraction of the nth substance listed
Conditions: Fluid (supercritical or subcritical phases), Vibrating wire viscometry, x2 = 0.5174

C [methane] + O=C=O
Conditions	viscosity [mPa·s]
229 K, 14501 kPa	0.073
229.3 K, 12980 kPa	0.0703
229.4 K, 11654 kPa	0.06874
229.5 K, 10963 kPa	0.0679
229.5 K, 13698 kPa	0.0721
229.5 K, 14200 kPa	0.07231
229.6 K, 10168 kPa	0.06646
257.8 K, 19252 kPa	0.05496
257.8 K, 21263 kPa	0.0575
257.9 K, 12165 kPa	0.04274
257.9 K, 14190 kPa	0.047
257.9 K, 18239 kPa	0.0541
257.9 K, 22280 kPa	0.05903
257.9 K, 23289 kPa	0.05979
258 K, 16209 kPa	0.05083
287.7 K, 7818 kPa	0.01711
287.7 K, 8134 kPa	0.01748
287.7 K, 11663 kPa	0.02384
287.7 K, 12567 kPa	0.02598
287.7 K, 13512 kPa	0.02819
287.7 K, 14605 kPa	0.03051
287.7 K, 15897 kPa	0.03311
287.7 K, 17472 kPa	0.03599
287.7 K, 19398 kPa	0.0392
287.7 K, 21895 kPa	0.04255
287.7 K, 25061 kPa	0.04633
287.8 K, 8895 kPa	0.01845
287.8 K, 9137 kPa	0.01889
287.8 K, 9866 kPa	0.02011
287.8 K, 31033 kPa	0.0527
288.1 K, 1438 kPa	0.01349
288.1 K, 1553 kPa	0.0135
288.1 K, 2042 kPa	0.01369
288.1 K, 2553 kPa	0.01388
288.1 K, 3073 kPa	0.01402
288.1 K, 3570 kPa	0.01425
288.1 K, 5123 kPa	0.01498
288.1 K, 5405 kPa	0.01519
288.2 K, 4066 kPa	0.01442
288.2 K, 4594 kPa	0.01468
288.2 K, 6609 kPa	0.01593
288.2 K, 7116 kPa	0.01636
288.2 K, 9140 kPa	0.01892
288.2 K, 11159 kPa	0.02281
288.2 K, 13180 kPa	0.02721
288.2 K, 15201 kPa	0.03146
288.2 K, 19138 kPa	0.03829
288.2 K, 21458 kPa	0.04192
288.2 K, 23984 kPa	0.04512
288.2 K, 25172 kPa	0.04621
288.2 K, 26302 kPa	0.04748
317.8 K, 2056 kPa	0.01479
317.9 K, 1389 kPa	0.01457
317.9 K, 1545 kPa	0.01462
318 K, 2566 kPa	0.015
318 K, 3069 kPa	0.01518
318 K, 4578 kPa	0.01571
318 K, 5085 kPa	0.01587
318 K, 6297 kPa	0.01646
318.1 K, 6520 kPa	0.01648
318.1 K, 7151 kPa	0.01689
318.1 K, 7212 kPa	0.01688
318.1 K, 8226 kPa	0.01751
318.1 K, 9335 kPa	0.0182
318.1 K, 10457 kPa	0.01916
318.1 K, 11460 kPa	0.02013
318.1 K, 12573 kPa	0.02123
318.1 K, 13584 kPa	0.02235
318.1 K, 14713 kPa	0.02377
318.1 K, 15239 kPa	0.02432
318.1 K, 15724 kPa	0.02502
318.1 K, 16254 kPa	0.02562
318.1 K, 17842 kPa	0.02789
318.1 K, 20300 kPa	0.03122
318.1 K, 21518 kPa	0.03236
318.1 K, 22819 kPa	0.03405
318.1 K, 24011 kPa	0.03506
318.1 K, 25249 kPa	0.03636
318.1 K, 26412 kPa	0.03781
318.1 K, 27392 kPa	0.03909
318.1 K, 28884 kPa	0.04047
318.1 K, 30364 kPa	0.04187
318.1 K, 31857 kPa	0.04341
347.7 K, 4516 kPa	0.01665
347.8 K, 2161 kPa	0.01599
347.8 K, 2764 kPa	0.01606
347.8 K, 2964 kPa	0.01612
347.8 K, 3169 kPa	0.01615
347.8 K, 3278 kPa	0.01616
347.8 K, 3485 kPa	0.01631
347.8 K, 4003 kPa	0.01648
347.8 K, 5009 kPa	0.01682
347.8 K, 5509 kPa	0.01696
347.8 K, 5514 kPa	0.01701
347.8 K, 6032 kPa	0.01714
347.8 K, 6512 kPa	0.01731
347.8 K, 7016 kPa	0.01746
347.8 K, 7538 kPa	0.01766
347.8 K, 8039 kPa	0.01795
347.8 K, 8528 kPa	0.01812
347.8 K, 9051 kPa	0.01836
347.8 K, 10090 kPa	0.0189
347.8 K, 10617 kPa	0.01914
347.8 K, 11109 kPa	0.01948
347.8 K, 11596 kPa	0.01976
347.8 K, 12118 kPa	0.02008
347.8 K, 12605 kPa	0.02043
347.8 K, 13204 kPa	0.02102
347.8 K, 13713 kPa	0.02132
347.8 K, 14226 kPa	0.02172
347.8 K, 14732 kPa	0.02205
347.8 K, 16775 kPa	0.02364
347.8 K, 18782 kPa	0.02533
347.8 K, 20792 kPa	0.02732
347.9 K, 1555 kPa	0.01586
347.9 K, 1745 kPa	0.01584
347.9 K, 1956 kPa	0.01592
347.9 K, 2361 kPa	0.01592
347.9 K, 2566 kPa	0.01603
